Reference: US9549942B2, “Composition for preventing or treating degenerative brain diseases including compound downregulating expression of BACE1 proteins” (RESEARCH & BUSINESS FOUNDATION SUNGKYUNKWAN UNIVERSITY, priority 2013, dated 2017)

How the values were obtained:
BACE1 mRNA = BACE1 mRNA under oxidative stress (HNE) conditions of brain nerve cells (real-time PCR); format: cell-based, human; settings: SH-SY5Y cells pretreated 24 hours at 1, 5 and 10 μM, then HNE
Experimental: In order to determine an influence of chlorhexidine and thioguanosine of the present disclosure on an amount of BACE1 expression under oxidative stress conditions of brain nerve cells, the following experiment was performed.
Brain nerve cells, SH-SY5Y cells, were pretreated with chlorhexidine and thioguanosine at 1 μM, 5 μM, and 10 μM for 24 hours. Then, an oxidative stress substance HNE (4-hydroxynonenal) was applied to the SH-SY5Y cells, and a change in the amount of BACE1 proteins was determined by Western blot. A change in an amount of BACE1 mRNA was determined by real-time PCR.
In this regard, in FIGS. 9 and 10, asterisks (**) indicate a significant (p≦0.01) increase of BACE1 mRNA expression relative to control. Similarly, number signs (##) indicate a significant (p≦0.01) decrease, and number signs (###) indicate a significant (p≦0.001) decrease in BACE1 mRNA expression relative to oxidative stress conditions.

3×Tg-AD mice = assay: Morris water maze, platform removed on fifth day (memory); format: in vivo, mouse; settings: 25 mg/kg orally every day for 4 weeks, 60 seconds
Experimental: As an Alzheimer's dementia animal model, 3×Tg-AD mice were used. The 3×Tg-AD mouse is a mouse having overexpressed presenilin, amyloid precursor protein (APP), and Tau genes, which are frequently found in Alzheimer's dementia. The 3×Tg-AD mouse is an animal model that is widely used for research on Alzheimer's dementia (Oddo S. et al, 2003, Neuron, 39, 409-421). 25 mg/kg of chlorhexidine was orally administered every day for 4 weeks; and 0.1 mg/kg and 0.5 mg/kg of thioguanosine were orally administered every day for 8 weeks to 6-month old 3×Tg-AD mice. A Morris water maze test was used to evaluate the effects of chlorhexidine and thioguanosine administration on the mice. […] In this configuration, a treated or control subject was placed into the water with its head towards a water tank wall surface, and a time was recorded for the length of time taken for finding the escape platform. […] After 15 minutes, the mouse was placed into the water again, a subsequent time taken for finding the escape platform was recorded, and a change in the learning ability was determined. This procedure was performed over four days, and the result of change in learning ability was measured. […]

[H]/N=C(\N/C(=N/[H])NCCCCCCNC(=N)NC(=N)Nc1ccc(Cl)cc1)Nc1ccc(Cl)cc1 [chlorhexidine, N′,N′″″-hexane-1,6-diylbis[N-(4-chlorophenyl)(imidodicarbonimidic diamide)]]
increase in the amount of BACE1 mRNA due to oxidative stress (BACE1 mRNA): decreased at 1 μM and at 5 μM | memory: time in target quadrant after platform removed (3×Tg-AD mice): spent the majority of time in the location in which the platform was formerly placed
